From patent US9611249B2, “1H-indazole-3-carboxamide compounds as glycogen synthase kinase 3 beta inhibitors” (AZIENDE CHIMICHE RIUNITE ANGELINI FRANCESCO A.C.R.A.F. …, priority 2012, dated 2017)

Experiments:
Assay type in all cases: biochemical
[1] = biological target: FGFR1 kinase (h) (Homo sapiens (Human), UniProt P11362); assay: Kinase selectivity panel: FGFR1 kinase (h); settings: 10 μM in duplicate, read-out: % inhibition of control values
Method: (§1) (a) Compounds 1 and 2 were tested against a panel of 60 kinases in order to assess their selectivity. The assays were chosen taking into consideration the diversity of assay families.
(§2) Tested kinases were representative of following kinase sub-families: • protein-serine/threonine kinases; • protein-tyrosine kinases; • other kinases; and • atypical kinases.
(§3) Human recombinant kinases were incubated in the presence of specific peptide substrates plus ATP for different times (10, 15, 30, 60 or 90 minutes) at 22° C. Phosphorylated substrate was detected by LANCE or HTRF technology (CISBIO, MA, USA). The compounds were tested at 10 μM in duplicate.
(§4) The results are expressed as a percentage of inhibition of control specific activity obtained in the presence of the test compounds and are reported in the following Table 5.
(§5) (b) Compounds 3, 8, 29 and 31 were tested against the same panel of 60 kinases under the same conditions described above for compounds 1 and 2.
(§6) The results are expressed as a percent of inhibition of control specific activity obtained in the presence of the test compounds and are reported in the following Table 6.

[2] = biological target: RSK2 (h) (Homo sapiens (Human), UniProt P51812); assay: Kinase selectivity panel: RSK2 (h); settings: 10 μM in duplicate, read-out: % inhibition of control values
Method: as §1, §2, §3, §4, §5, §6

[3] = biological target: NEK7 (h) (Homo sapiens (Human), UniProt Q8TDX7); assay: Kinase selectivity panel: NEK7 (h); settings: 10 μM in duplicate, read-out: % inhibition of control values
Method: as §1, §2, §3, §4, §5, §6

[4] = biological target: CHK1 (h) (Homo sapiens (Human), UniProt O14757); assay: Kinase selectivity panel: CHK1 (h); settings: 10 μM in duplicate, read-out: % inhibition of control values
Method: as §1, §2, §3, §4, §5, §6

[5] = biological target: Src kinase (h) (Homo sapiens (Human), UniProt P12931); assay: Kinase selectivity panel: Src kinase (h); settings: 10 μM in duplicate, read-out: % inhibition of control values
Method: as §1, §2, §3, §4, §5, §6

[6] = biological target: Pim1 kinase (h) (Homo sapiens (Human), UniProt P11309); assay: Kinase selectivity panel: Pim1 kinase (h); settings: 10 μM in duplicate, read-out: % inhibition of control values
Method: as §1, §2, §3, §4, §5, §6

[7] = biological target: PKCbeta 1 (h) (Homo sapiens (Human), UniProt P05771); assay: Kinase selectivity panel: PKCbeta 1 (h); settings: 10 μM in duplicate, read-out: % inhibition of control values
Method: as §1, §2, §3, §4, §5, §6

[8] = biological target: CDK2 (h) (cycA) (Homo sapiens (Human), UniProt P24941); assay: Kinase selectivity panel: CDK2 (h) (cycA); settings: 10 μM in duplicate, read-out: % inhibition of control values
Method: as §1, §2, §3, §4, §5, §6

[9] = biological target: DCAMKL1 (h) (Homo sapiens (Human), UniProt O15075); assay: Kinase selectivity panel: DCAMKL1 (h); settings: 10 μM in duplicate, read-out: % inhibition of control values
Method: as §1, §2, §3, §4, §5, §6

[10] = biological target: IRK (h) (InsR) (Homo sapiens (Human), UniProt P06213); assay: Kinase selectivity panel: IRK (h) (InsR); settings: 10 μM in duplicate, read-out: % inhibition of control values
Method: as §1, §2, §3, §4, §5, §6

[11] = biological target: EphB4 kinase (h) (Homo sapiens (Human), UniProt P54760); assay: Kinase selectivity panel: EphB4 kinase (h); settings: 10 μM in duplicate, read-out: % inhibition of control values
Method: as §1, §2, §3, §4, §5, §6

[12] = biological target: MYT1 kinase (h) (Homo sapiens (Human), UniProt Q99640); assay: Kinase selectivity panel: MYT1 kinase (h); settings: 10 μM in duplicate, read-out: % inhibition of control values
Method: as §1, §2, §3, §4, §5, §6

[13] = biological target: p38delta kinase (h) (Homo sapiens (Human), UniProt O15264); assay: Kinase selectivity panel: p38delta kinase (h); settings: 10 μM in duplicate, read-out: % inhibition of control values
Method: as §1, §2, §3, §4, §5, §6

[14] = biological target: human GSK-3β (Homo sapiens (Human), UniProt P49841); assay: Activity on human GSK-3β, LANCE substrate phosphorylation assay; settings: 10 μM, in duplicate, first screening assay
Method: Activity on human GSK-3β was assessed using the following methods (according to Meijer et al., Chem. Biol., 2003-10:1255-1266).
In a first screening assay, compounds were tested in duplicate at a concentration of 10 μM.
Human recombinant enzyme GSK-3β was incubated for 90 minutes at 22° C. in the presence of compounds or vehicle in a reaction buffer containing ATP plus 100 nM unphosphorylated specific substrate peptide (Ulight-[…] K-amide). Substrate phosphorylation was measured by LANCE technology (PerkinElmer, Conn., USA).
In a second assay, the same compounds were assayed at five concentrations ranging from 100 μM to 10 nM with ten-fold dilutions in duplicate.
The IC50 values (concentration causing a half maximal inhibition of control specific activity), reported in table 4, were determined by non-linear regression analysis of the inhibition curves generated with mean replicate values using Hill equation curve fitting.

[15] = biological target: Abl kinase (h) (Homo sapiens (Human), UniProt P00519); assay: Kinase selectivity panel: Abl kinase (h); settings: 10 μM in duplicate, read-out: % inhibition of control values
Method: as §1, §2, §3, §4, §5, §6

[16] = biological target: DYRK1a (h) (Homo sapiens (Human), UniProt Q13627); assay: Kinase selectivity panel: DYRK1a (h); settings: 10 μM in duplicate, read-out: % inhibition of control values
Method: as §1, §2, §3, §4, §5, §6

[17] = biological target: JAK1 (h) (Homo sapiens (Human), UniProt P23458); assay: Kinase selectivity panel: JAK1 (h); settings: 10 μM in duplicate, read-out: % inhibition of control values
Method: as §1, §2, §3, §4, §5, §6

[18] = biological target: AurB/Aur1 kinase (h) (Homo sapiens (Human), UniProt Q96GD4); assay: Kinase selectivity panel: AurB/Aur1 kinase (h); settings: 10 μM in duplicate, read-out: % inhibition of control values
Method: as §1, §2, §3, §4, §5, §6

[19] = biological target: DLK1 (h) (MAP3K12) (Homo sapiens (Human), UniProt Q12852); assay: Kinase selectivity panel: DLK1 (h) (MAP3K12); settings: 10 μM in duplicate, read-out: % inhibition of control values
Method: as §1, §2, §3, §4, §5, §6

[20] = biological target: IKKalpha (h) (Homo sapiens (Human), UniProt O15111); assay: Kinase selectivity panel: IKKalpha (h); settings: 10 μM in duplicate, read-out: % inhibition of control values
Method: as §1, §2, §3, §4, §5, §6

[21] = biological target: EphA4 kinase (h) (Homo sapiens (Human), UniProt P54764); assay: Kinase selectivity panel: EphA4 kinase (h); settings: 10 μM in duplicate, read-out: % inhibition of control values
Method: as §1, §2, §3, §4, §5, §6

[22] = biological target: PDK1 (h) (Homo sapiens (Human), UniProt O15530); assay: Kinase selectivity panel: PDK1 (h); settings: 10 μM in duplicate, read-out: % inhibition of control values
Method: as §1, §2, §3, §4, §5, §6

[23] = biological target: PhKgamma 2 (h) (Homo sapiens (Human), UniProt P15735); assay: Kinase selectivity panel: PhKgamma 2 (h); settings: 10 μM in duplicate, read-out: % inhibition of control values
Method: as §1, §2, §3, §4, §5, §6

[24] = biological target: GRK3/BARK2 (h) (ADRBK2) (Homo sapiens (Human), UniProt P35626); assay: Kinase selectivity panel: GRK3/BARK2 (h) (ADRBK2); settings: 10 μM in duplicate, read-out: % inhibition of control values
Method: as §1, §2, §3, §4, §5, §6

[25] = biological target: PKCalpha (h) (Homo sapiens (Human), UniProt P17252); assay: Kinase selectivity panel: PKCalpha (h); settings: 10 μM in duplicate, read-out: % inhibition of control values
Method: as §1, §2, §3, §4, §5, §6

[26] = biological target: c-Met kinase (h) (Homo sapiens (Human), UniProt P08581); assay: Kinase selectivity panel: c-Met kinase (h); settings: 10 μM in duplicate, read-out: % inhibition of control values
Method: as §1, §2, §3, §4, §5, §6

[27] = biological target: CDK5/p35 (h) (Homo sapiens (Human), UniProt Q00535); assay: Kinase selectivity panel: CDK5/p35 (h); settings: 10 μM in duplicate, read-out: % inhibition of control values
Method: as §1, §2, §3, §4, §5, §6

[28] = biological target: Akt1/PKBalpha (h) (Homo sapiens (Human), UniProt P31749); assay: Kinase selectivity panel: Akt1/PKBalpha (h); settings: 10 μM in duplicate, read-out: % inhibition of control values
Method: as §1, §2, §3, §4, §5, §6

[29] = biological target: PKA (h) (Homo sapiens (Human), UniProt P17612); assay: Kinase selectivity panel: PKA (h); settings: 10 μM in duplicate, read-out: % inhibition of control values
Method: as §1, §2, §3, §4, §5, §6

Chain of CHK1 (h) (O14757 whole entry): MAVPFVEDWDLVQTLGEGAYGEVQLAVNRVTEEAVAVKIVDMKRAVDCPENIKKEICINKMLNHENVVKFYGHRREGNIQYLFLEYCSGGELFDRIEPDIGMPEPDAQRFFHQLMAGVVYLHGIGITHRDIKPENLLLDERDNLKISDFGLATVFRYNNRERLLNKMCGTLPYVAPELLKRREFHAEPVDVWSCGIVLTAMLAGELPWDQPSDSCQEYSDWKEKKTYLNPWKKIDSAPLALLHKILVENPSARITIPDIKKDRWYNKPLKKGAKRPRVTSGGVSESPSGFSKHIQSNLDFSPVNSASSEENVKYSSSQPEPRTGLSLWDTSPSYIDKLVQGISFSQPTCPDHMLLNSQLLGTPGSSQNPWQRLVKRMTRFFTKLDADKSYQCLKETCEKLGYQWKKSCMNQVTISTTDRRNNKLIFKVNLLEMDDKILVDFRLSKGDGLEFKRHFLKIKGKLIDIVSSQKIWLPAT
Chain of DCAMKL1 (h) (O15075 whole entry): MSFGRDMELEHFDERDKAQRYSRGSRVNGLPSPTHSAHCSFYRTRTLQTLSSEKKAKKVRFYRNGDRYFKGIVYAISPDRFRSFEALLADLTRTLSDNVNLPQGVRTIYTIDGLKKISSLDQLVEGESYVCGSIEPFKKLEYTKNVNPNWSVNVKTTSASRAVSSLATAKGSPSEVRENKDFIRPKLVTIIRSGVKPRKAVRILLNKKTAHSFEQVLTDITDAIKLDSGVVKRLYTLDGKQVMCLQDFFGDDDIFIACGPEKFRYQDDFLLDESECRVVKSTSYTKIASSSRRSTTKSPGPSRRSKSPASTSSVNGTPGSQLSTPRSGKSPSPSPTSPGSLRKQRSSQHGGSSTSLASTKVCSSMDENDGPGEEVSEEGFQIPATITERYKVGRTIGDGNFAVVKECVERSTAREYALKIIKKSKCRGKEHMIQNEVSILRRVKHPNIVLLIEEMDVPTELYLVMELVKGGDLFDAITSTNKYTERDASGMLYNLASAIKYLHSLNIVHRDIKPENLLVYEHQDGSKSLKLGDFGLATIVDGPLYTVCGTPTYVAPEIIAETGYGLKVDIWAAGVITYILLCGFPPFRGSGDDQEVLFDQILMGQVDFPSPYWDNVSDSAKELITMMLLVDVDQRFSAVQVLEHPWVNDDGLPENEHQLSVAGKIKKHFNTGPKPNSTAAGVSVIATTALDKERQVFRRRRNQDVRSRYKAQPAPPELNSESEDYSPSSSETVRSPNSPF
Chain of p38delta kinase (h) (O15264 whole entry): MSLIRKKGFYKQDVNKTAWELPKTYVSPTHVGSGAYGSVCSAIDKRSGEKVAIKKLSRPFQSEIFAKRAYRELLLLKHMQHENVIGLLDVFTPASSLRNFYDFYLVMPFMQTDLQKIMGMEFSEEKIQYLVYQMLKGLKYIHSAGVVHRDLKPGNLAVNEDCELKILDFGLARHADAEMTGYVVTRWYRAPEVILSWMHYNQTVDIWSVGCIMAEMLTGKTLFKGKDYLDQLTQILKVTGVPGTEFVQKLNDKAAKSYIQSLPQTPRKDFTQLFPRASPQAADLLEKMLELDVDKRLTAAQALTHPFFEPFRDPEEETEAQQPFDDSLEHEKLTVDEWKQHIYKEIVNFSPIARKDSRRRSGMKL
Chain of EphB4 kinase (h) (P54760 16-987): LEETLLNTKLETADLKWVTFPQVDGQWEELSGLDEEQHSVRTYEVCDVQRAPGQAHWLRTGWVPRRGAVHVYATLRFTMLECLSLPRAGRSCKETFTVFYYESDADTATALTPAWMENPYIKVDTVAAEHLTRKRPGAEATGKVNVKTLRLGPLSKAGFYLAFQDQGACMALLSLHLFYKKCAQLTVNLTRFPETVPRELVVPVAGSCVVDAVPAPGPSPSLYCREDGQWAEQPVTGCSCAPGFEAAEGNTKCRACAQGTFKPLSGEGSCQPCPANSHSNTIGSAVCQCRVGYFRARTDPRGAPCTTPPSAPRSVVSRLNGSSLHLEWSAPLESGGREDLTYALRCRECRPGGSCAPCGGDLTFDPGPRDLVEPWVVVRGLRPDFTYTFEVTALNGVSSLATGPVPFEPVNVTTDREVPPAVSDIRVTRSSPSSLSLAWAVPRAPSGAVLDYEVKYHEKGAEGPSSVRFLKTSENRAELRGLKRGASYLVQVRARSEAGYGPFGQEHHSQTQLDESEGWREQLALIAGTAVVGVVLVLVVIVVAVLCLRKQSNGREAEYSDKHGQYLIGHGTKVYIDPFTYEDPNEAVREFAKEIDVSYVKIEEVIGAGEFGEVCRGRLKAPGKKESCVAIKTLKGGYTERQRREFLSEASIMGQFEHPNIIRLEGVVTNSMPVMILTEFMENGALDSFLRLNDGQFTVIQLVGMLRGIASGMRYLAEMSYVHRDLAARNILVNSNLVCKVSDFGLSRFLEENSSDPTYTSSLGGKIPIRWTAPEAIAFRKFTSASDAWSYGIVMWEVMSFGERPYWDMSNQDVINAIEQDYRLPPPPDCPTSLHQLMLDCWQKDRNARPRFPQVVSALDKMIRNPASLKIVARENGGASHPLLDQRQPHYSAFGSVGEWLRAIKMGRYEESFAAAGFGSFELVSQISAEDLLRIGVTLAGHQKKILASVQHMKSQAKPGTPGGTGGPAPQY
Chain of PDK1 (h) (O15530 whole entry): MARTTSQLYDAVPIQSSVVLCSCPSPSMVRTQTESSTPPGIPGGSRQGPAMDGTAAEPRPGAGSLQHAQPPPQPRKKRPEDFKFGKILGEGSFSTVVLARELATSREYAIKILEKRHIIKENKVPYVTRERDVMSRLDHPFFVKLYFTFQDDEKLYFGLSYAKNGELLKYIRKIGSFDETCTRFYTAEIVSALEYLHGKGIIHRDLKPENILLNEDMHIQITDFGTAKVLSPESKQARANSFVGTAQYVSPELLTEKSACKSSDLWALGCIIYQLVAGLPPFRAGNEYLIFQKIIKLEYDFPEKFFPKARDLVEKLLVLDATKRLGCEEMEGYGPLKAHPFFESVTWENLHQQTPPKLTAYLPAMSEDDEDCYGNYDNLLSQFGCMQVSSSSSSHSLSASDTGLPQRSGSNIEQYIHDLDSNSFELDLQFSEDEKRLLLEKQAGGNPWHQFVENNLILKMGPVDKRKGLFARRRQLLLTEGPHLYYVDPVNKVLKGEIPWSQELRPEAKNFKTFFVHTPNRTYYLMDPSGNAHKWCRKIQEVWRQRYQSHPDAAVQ
Chain of IKKalpha (h) (O15111 whole entry): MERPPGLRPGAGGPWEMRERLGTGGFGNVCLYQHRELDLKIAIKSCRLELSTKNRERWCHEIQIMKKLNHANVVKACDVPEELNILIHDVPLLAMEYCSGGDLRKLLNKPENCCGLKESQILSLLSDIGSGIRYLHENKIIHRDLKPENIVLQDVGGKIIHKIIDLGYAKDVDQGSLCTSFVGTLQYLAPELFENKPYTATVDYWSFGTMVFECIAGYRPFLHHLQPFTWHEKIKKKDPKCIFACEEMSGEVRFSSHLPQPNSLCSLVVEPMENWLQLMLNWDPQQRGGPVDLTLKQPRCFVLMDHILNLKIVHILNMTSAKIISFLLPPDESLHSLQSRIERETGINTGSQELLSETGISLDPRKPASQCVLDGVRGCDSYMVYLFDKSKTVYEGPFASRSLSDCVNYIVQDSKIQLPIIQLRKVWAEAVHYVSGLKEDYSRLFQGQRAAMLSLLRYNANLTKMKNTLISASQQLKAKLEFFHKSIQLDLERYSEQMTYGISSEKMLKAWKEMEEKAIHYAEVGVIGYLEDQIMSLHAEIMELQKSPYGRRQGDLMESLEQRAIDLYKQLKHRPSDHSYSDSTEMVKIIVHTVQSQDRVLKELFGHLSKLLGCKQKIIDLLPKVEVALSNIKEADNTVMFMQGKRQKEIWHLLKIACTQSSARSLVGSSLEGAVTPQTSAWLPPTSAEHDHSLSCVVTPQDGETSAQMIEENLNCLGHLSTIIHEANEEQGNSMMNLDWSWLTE
Chain of MYT1 kinase (h) (Q99640 whole entry): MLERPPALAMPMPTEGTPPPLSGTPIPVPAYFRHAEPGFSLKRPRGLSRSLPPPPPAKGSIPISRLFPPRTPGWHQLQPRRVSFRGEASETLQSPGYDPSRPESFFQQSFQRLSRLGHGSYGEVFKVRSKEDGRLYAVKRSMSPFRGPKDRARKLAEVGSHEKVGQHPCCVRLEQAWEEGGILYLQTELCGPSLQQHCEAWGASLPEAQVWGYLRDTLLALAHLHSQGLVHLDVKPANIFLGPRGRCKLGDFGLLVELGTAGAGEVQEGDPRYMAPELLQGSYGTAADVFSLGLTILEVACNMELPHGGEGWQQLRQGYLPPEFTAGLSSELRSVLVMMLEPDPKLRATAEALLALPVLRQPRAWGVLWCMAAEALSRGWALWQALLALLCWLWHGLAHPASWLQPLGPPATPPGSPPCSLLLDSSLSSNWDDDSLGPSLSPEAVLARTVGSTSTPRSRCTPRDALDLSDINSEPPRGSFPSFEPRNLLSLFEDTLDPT

SMILES	inhibition at 10 µM [1]	inhibition at 10 µM [2]	inhibition at 10 µM [3]	inhibition at 10 µM [4]	inhibition at 10 µM [5]	inhibition at 10 µM [6]	inhibition at 10 µM [7]	inhibition at 10 µM [8]	inhibition at 10 µM [9]	inhibition at 10 µM [10]	inhibition at 10 µM [11]	inhibition at 10 µM [12]	inhibition at 10 µM [13]	inhibition at 10 µM [15]	inhibition at 10 µM [16]	inhibition at 10 µM [17]	inhibition at 10 µM [18]	inhibition at 10 µM [19]	inhibition at 10 µM [20]	inhibition at 10 µM [21]	further results
COc1ccc2[nH]nc(C(=O)NCC3CCN(CCC(=O)O)CC3)c2c1 [Compound 3]	0%	4%	2%	0%	0%	12%	0%	21%	0%	0%	0%	2%	0%	0%	51%	4%	0%	0%	0%	0%	inhibition at 10 µM [14]: 94%; inhibition at 10 µM [22]: 0%; inhibition at 10 µM [23]: 1%; inhibition at 10 µM [24]: 0%; inhibition at 10 µM [25]: 5%; inhibition at 10 µM [26]: 0%; inhibition at 10 µM [27]: 9%; inhibition at 10 µM [28]: 0%; inhibition at 10 µM [29]: 0%
COCCN1CCC(CNC(=O)c2n[nH]c3ccc(-c4cccc(F)c4F)cc23)CC1 [Compound 8, 5-(2,3-difluorophenyl)-N-{[1-(2-methoxyethyl)piperidin-4-yl]methyl}-1H-indazole-3-carboxamide]	8%	4%	0%	0%	0%	17%	28%	92%	0%	9%	0%	20%	18%	0%	99%	7%	0%	58%	1%	0%	inhibition at 10 µM [22]: 0%; inhibition at 10 µM [23]: 0%; inhibition at 10 µM [24]: 8%; inhibition at 10 µM [25]: 19%; inhibition at 10 µM [26]: 7%; inhibition at 10 µM [27]: 77%; inhibition at 10 µM [28]: 0%; inhibition at 10 µM [29]: 0%
